In PubChem BioAssay (NCI) one finds GI50 and TGI data, which are given here for eight molecules.

Some test systems named below: MDA-MB-231 breast; HCC-2998 colon; 786-0 renal; PC-3 prostate; HOP-92 NSCLC; M14 melanoma; MOLT-4 leukemia; SR leukemia; IGROV1 ovarian; SF-539 CNS.
What all share (assay): DTP human tumour cell line panel, 48 h

Where “and” joins values, the source holds several entries; their conditions need not be identical. Equal values may be shown once.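 Briefly, cells in 96-well plates were exposed to five compound concentrations for 48 h, and endpoints were estimated by linear interpolation. GI50 = concentration required for 50% inhibition of growth. At the TGI there is no net growth.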 Where only a bound is given, the exact number is not on record here.

Consider `Cn1ncc(-c2ccc3c(=O)[nH]nc(CN)c3c2)c1-c1c(F)c(Cl)cc(OC2CC2)c1C#N`, for which the GI50 in the test on MDA-MB-231 breast was 14.7 µM and 13.8 µM; in the test with HCC-2998 colon, 14.2 µM and 14.5 µM; in the test with 786-0 renal it was 13.4 µM and 12.3 µM; in the test with PC-3 prostate, 19.9 µM and 17.1 µM; with HOP-92 NSCLC it was 12.9 µM and 10.1 µM; in the test on M14 melanoma, 14.2 µM and 13.4 µM. In addition, the GI50 was 10.9 µM and 11.7 µM with MOLT-4 leukemia; 13.1 µM and 12.3 µM with SR leukemia; 14.2 µM and 11.6 µM in the test with IGROV1 ovarian; 14.4 µM and 13.1 µM in the test on SF-539 CNS. For the same molecule, the TGI is 29.8 µM and 28.4 µM in the test with MDA-MB-231 breast; 28 µM and 28.3 µM with HCC-2998 colon; 29.5 µM and 26 µM with 786-0 renal; 66.8 µM and 48.2 µM in the test on PC-3 prostate; 31.1 µM and 25.5 µM with HOP-92 NSCLC; 28.9 µM and 27.5 µM in the test on M14 melanoma. In addition, the TGI in the test on MOLT-4 leukemia was > 100 µM; in the test with SR leukemia it was 34.8 µM and 41 µM; in the test on IGROV1 ovarian it was 30.1 µM and 24.6 µM; in the test on SF-539 CNS, 28 µM and 26.7 µM.

Regarding `O=S(=O)(Nc1ccc(Br)cc1)c1ccc(-c2cnc(C3CC3)o2)cc1`, the GI50 was 3.77 µM in the test with MDA-MB-231 breast; 2.38 µM in the test with HCC-2998 colon; 5.34 µM with 786-0 renal; 2.67 µM in the test with PC-3 prostate; 3.39 µM with HOP-92 NSCLC; 1.41 µM with M14 melanoma. For the same molecule, the GI50 in the test with MOLT-4 leukemia is 2.16 µM; in the test on SR leukemia, 0.349 µM; with IGROV1 ovarian, 2.57 µM; in the test on SF-539 CNS, 1.86 µM. The total growth inhibition concentration (TGI) came to 17.8 µM in the test with MDA-MB-231 breast; 15.4 µM in the test on HCC-2998 colon; 20.1 µM in the test with 786-0 renal; 15.5 µM with PC-3 prostate; 18.6 µM in the test on HOP-92 NSCLC; 16.1 µM in the test on M14 melanoma. Further, the total growth inhibition concentration (TGI) in the test on MOLT-4 leukemia turned out to be 24.2 µM; in the test on SR leukemia, 16.5 µM; in the test with IGROV1 ovarian it was 15.8 µM; in the test on SF-539 CNS it was 5.91 µM.

Regarding `CCc1c2c(nc3ccc(OCc4ccc(B(O)O)cc4)cc13)-c1cc3c(c(=O)n1C2)COC(=O)[C@]3(O)CC`, the GI50 with MDA-MB-231 breast is 1.37 µM; in the test on HCC-2998 colon, 0.398 µM; in the test with 786-0 renal, < 0.0174 µM; in the test with PC-3 prostate it was 0.164 µM; with HOP-92 NSCLC, 0.0366 µM; with M14 melanoma it was < 0.0156 µM. The GI50 in the test with MOLT-4 leukemia was 0.0101 µM; in the test on SR leukemia, < 0.01 µM; with IGROV1 ovarian it was 0.161 µM; with SF-539 CNS, < 0.0117 µM. Besides, the concentration for total growth inhibition (TGI) in the test on MDA-MB-231 breast is > 89.5 µM; in the test with HCC-2998 colon, > 66.1 µM; in the test on 786-0 renal, 1.8 µM; in the test on PC-3 prostate it was > 75.5 µM; in the test on HOP-92 NSCLC it was 4.36 µM; with M14 melanoma, 1.66 µM. The total growth inhibition concentration (TGI) was > 100 µM in the test on MOLT-4 leukemia, > 100 µM in the test with SR leukemia, > 33.7 µM with IGROV1 ovarian and 0.155 µM in the test with SF-539 CNS.

For `c1ccc(-c2nc(-c3ccccn3)nc(-c3ccccn3)n2)nc1`, the GI50 is 32.6 µM with MDA-MB-231 breast; 75.5 µM with HCC-2998 colon; 61.5 µM in the test on 786-0 renal; 48.1 µM in the test on PC-3 prostate; 8.99 µM with HOP-92 NSCLC; 31.4 µM with M14 melanoma. For the same molecule, the GI50 in the test on MOLT-4 leukemia was 21.2 µM; in the test on SR leukemia, 37.9 µM; in the test on IGROV1 ovarian it was 15.8 µM; in the test with SF-539 CNS it was 40.3 µM. Also, the TGI in the test on MDA-MB-231 breast was > 100 µM; with HCC-2998 colon, > 100 µM; in the test on 786-0 renal, > 100 µM; in the test on PC-3 prostate, > 100 µM; in the test on HOP-92 NSCLC, 92 µM; in the test with M14 melanoma it was > 100 µM. Also, the TGI in the test on MOLT-4 leukemia is > 100 µM; in the test with SR leukemia, > 100 µM; in the test on IGROV1 ovarian, 55.2 µM; in the test on SF-539 CNS, > 100 µM.

As for `C/C(CC(O)(C(F)(F)F)C(F)(F)F)=N\NC(N)=O`, the TGI in the test on MDA-MB-231 breast, in the test on HCC-2998 colon, in the test with 786-0 renal, with PC-3 prostate, in the test on HOP-92 NSCLC and with M14 melanoma was > 10 µM in each case. The concentration for total growth inhibition (TGI) in the test with MOLT-4 leukemia, in the test on SR leukemia, with IGROV1 ovarian and in the test with SF-539 CNS was > 10 µM throughout.

Consider `O=C(NCC1CC1)c1ccc(-c2cccc(C(=O)NC3CC3)c2)cc1`, for which the GI50 with MDA-MB-231 breast is > 25 µM; in the test on HCC-2998 colon it was > 25 µM; in the test with 786-0 renal, > 25 µM; in the test on PC-3 prostate, > 25 µM; with HOP-92 NSCLC, 6.66 µM; with M14 melanoma it was > 25 µM. In addition, the GI50 in the test on MOLT-4 leukemia was > 25 µM; with SR leukemia, > 23.3 µM; with IGROV1 ovarian, > 25 µM; in the test with SF-539 CNS, > 25 µM. Further, the TGI in the test on MDA-MB-231 breast, with HCC-2998 colon, in the test with 786-0 renal, with PC-3 prostate, with HOP-92 NSCLC and with M14 melanoma was > 25 µM each time. Moreover, the TGI with MOLT-4 leukemia, in the test with SR leukemia, in the test on IGROV1 ovarian and in the test on SF-539 CNS was > 25 µM throughout.

`CC(C)=CCN1c2ccccc2NC(=O)CC1C` (stereo not drawn): the TGI in the test with MDA-MB-231 breast, with HCC-2998 colon, in the test with 786-0 renal, in the test on PC-3 prostate, in the test with HOP-92 NSCLC and in the test with M14 melanoma was > 100 µM in each case. In addition, the total growth inhibition concentration (TGI) in the test on MOLT-4 leukemia, with SR leukemia, with IGROV1 ovarian and with SF-539 CNS was > 100 µM throughout.

For `COc1ccc(C2=Nn3c(nnc3-c3cc(Cl)cc(Cl)c3Cl)SC2)cc1`, the GI50 was 0.81 µM in the test with MDA-MB-231 breast; 1.21 µM with HCC-2998 colon; 0.411 µM in the test with 786-0 renal; 0.687 µM in the test on PC-3 prostate; > 33.9 µM with HOP-92 NSCLC; 0.349 µM with M14 melanoma. In addition, the GI50 with MOLT-4 leukemia is 1.49 µM; with SR leukemia, 0.826 µM; in the test with IGROV1 ovarian it was 0.339 µM; in the test with SF-539 CNS, 0.225 µM. The concentration for total growth inhibition (TGI) with MDA-MB-231 breast was 26.2 µM; in the test on HCC-2998 colon it was 5.41 µM; in the test with PC-3 prostate, > 100 µM; with HOP-92 NSCLC, > 100 µM; in the test on M14 melanoma, > 34 µM; in the test with MOLT-4 leukemia it was > 100 µM. Besides, the values for the concentration for total growth inhibition (TGI) in the test on IGROV1 ovarian and in the test with SF-539 CNS were 3.59 µM and 0.741 µM, respectively.
